Patent US20120321594A1, “METHODS OF CONTROLLING AXON OR DENDRITE DEVELOPMENT OF NEURONAL CELLS” (NEW YORK UNIVERSITY, priority 2011, published 2012)
Read-outs that look alike come from different tables or passages of the source.

Legend:
[1] = tested on: MAP2-positive dendrites of Xenopus spinal cord; experiment: Whole-mount MAP2 immunohistochemistry of spinal cords (dendrite identity in vivo); design: species or system Xenopus laevis; settings: for MAP2-IR in the MO-injected side of spinal cords: stage 42, compared to the uninjected side
[2] = tested on: xCav2.3α1E; experiment: Whole-mount immunostaining of xCav2.3α1E expression in spinal cords; assay type: in vivo, Xenopus laevis
[3] = tested on: Cav2.3 channels; experiment: Whole-cell Ca^2+ currents at growth cones of cultured xSCINs, isolated Cav2.3 (R-type) currents; assay type: cell-based, Xenopus laevis
Experimental: To test the conversion of the identities of individual neurites and for growth cone electrophysiology, 2,000 U/ml Sema3A (in micropipettes) was applied as a gradient. […] All pharmacological agents were bath-applied 30 min before experiments were performed unless otherwise indicated.

[4] = tested on: Cav2.3α1E; experiment: Cav2.3α1E immunoreactivity in cultured xSCINs; assay type: cell-based, Xenopus laevis; settings: pre-treatment with the agent
Experimental: Sema3A and +CHX, respectively, indicate treatment with Sema3A (2 U·ml−1) for 10 min or with Sema3A (2 U·ml−1) for 10 min after a one-minute pre-administration of cycloheximide (25 μM). FIG. 16B is a graph showing a summary of Cav2.3α1E immunoreactivity (IR, AU) in each experimental condition. […] FIGS. 16D and 16E are immunofluorescence images (FIG. 16D) and summaries (FIG. 16E) of Cav2.3α1E IR in Xenopus spinal cords either without (Control) or with (+CHX) local injection of cycloheximide (2.5 mM). Cav2.3α1E IR was normalized against that of control animals. For uninjected controls, the right sides of spinal cords were normalized against the left sides. Scale bars, 20 μm; data are mean±s.e.m; (n) =number of cultures (150 to 200 neurons, FIG. 16B) spinal cords examined (FIG. 16E). Significant difference from the control is indicated (**p<0.01). […]

[5] = tested on: cultured xSCINs; experiment: Neurite identity (tau-1 / MAP2 immunocytochemistry) of cultured xSCINs; assay type: cell-based, Xenopus laevis
Experimental: Capped messenger RNAs encoding NP1-0111, hSema3A, mCav2.3α1E, and green fluorescent protein (GFP) were synthesized with mMESSAGE mMACHINE (Ambion Inc.) and purified on NucAway™ Spin Columns (Ambion Inc.) as described by the manufacturer. […] Each blastomere was injected with 4 to 8 nl of 0.5 μg·ul^−1 NPI-0111, 0.5 μg·μl^−1 hSema3A, or 0.5 μg·μl^−mCav2.3α1E mRNA and 0.25 μg·μl^−1 GFP mRNA as an expression indicator. Primary Xenopus spinal neurons derived from developmental stage 26 embryos were cultured at 23° C.-25° C. for 16-20 hours and used for growth cone electrophysiology (FIGS. 2A-2E; FIGS. 3A-3C) and immunocytochemistry (FIGS. 4A and 4B). To examine the neurite identity and expression of functional AMPA receptor channels (FIGS. 5A-5C), cells were plated on cover glasses that had been coated for four to six hours each with poly-L-lysine (100 μg·ml^−1) and laminin (80 μg·ml^−1) and incubated for three to four hours at 23° C.-25° C. prior to use.
Sema3A (2 U·ml^−1) and netrin-1 (5 ng·ml^−1) were prepared as described (Nishiyama et al., “Membrane Potential Shifts Caused by Diffusible Guidance Signals Direct Growth-Cone Turning,” Nat. Neurosci. 11:762-771 (2008); Togashi et al., “Cyclic GMP-Gated CNG Channels Function in Sema3A-Induced Growth Cone Repulsion,” Neuron 58:694-707 (2008); Goshima, “A Novel Action of Collapsin: Collapsin-1 Increases Antero- and Retrograde Axoplasmic Transport Independently of Growth Cone Collapse,” J. Neurobiol. 33:316-328 (1997); Hong et al., “Calcium Signalling in the Guidance of Nerve Growth by Netrin-1,” Nature 403:93-98 (2000); Nishiyama et al., “Cyclic AMP/GMP-Dependent Modulation of Ca^2+ Channels Sets the Polarity of Nerve Growth-Cone Turning,” Nature 423:990-995 (2003); Hong et al., “A Ligand-Gated Association Between Cytoplasmic Domains of UNC5 and DCC Family Receptors Converts Netrin-Induced Growth Cone Attraction to Repulsion,” Cell 97:927-941 (1999), which are hereby incorporated by reference in their entirety). To test the conversion of the identities of individual neurites and for growth cone electrophysiology, 2,000 U/ml Sema3A (in micropipettes) was applied as a gradient. The biological activity of Sema3A (U·ml^−1) was evaluated using a collapse assay of chick DRG neurons (Goshima, “A Novel Action of Collapsin: Collapsin-1 Increases Antero- and Retrograde Axoplasmic Transport Independently of Growth Cone Collapse,” J. Neurobiol. 33:316-328 (1997), which is hereby incorporated by reference in its entirety). All pharmacological agents were bath-applied 30 min before experiments were performed unless otherwise indicated. Agonist and antagonists were purchased from Calbiochem, Peptide Institute, Sigma, and Tocris.

[6] = tested on: MAP2 to tau-1 ratio in Xenopus spinal cords; design: species or system Xenopus laevis; settings: in vivo
[7] = tested on: tau-1-positive axons of Xenopus spinal cord; design: species or system Xenopus laevis; settings: in vivo
[8] = tested on: putative CINs of Xenopus spinal cord; experiment: Imaging of individual spinal neurons (Texas Red dextran) in MO-injected spinal cords; assay type: in vivo, Xenopus laevis; settings: stage 42 tadpole spinal cords
[9] = tested on: xSema3A; experiment: Whole-mount immunostaining of xSema3A expression in spinal cords; settings: stage 30-32 spinal cords
[10] = injected into hindbrain and spinal cord of stage 30-32 tailbuds
[11] = xSema3A-A-MO in one side of spinal cords
[12] = xSCINs cultured on laminin, treated for three hours

## Nc1nc2c(nc(Br)n2[C@@H]2O[C@@H]3COP(=O)(O)O[C@H]3[C@H]2O)c(=O)[nH]1 [8-Br-cGMP]
[1]; [10]
  MAP2-IR / dendrite formation after local administration: enhanced
[1]; local administration, xCav2.3α1E-A-MO (FIG. 15N)
  rescue of dendrites in the absence of xCav2.3: failed to rescue dendrites
[2]; [10]
  expression of xCav2.3α1E after local administration: enhanced
[2]; [11]
  expression of xCav2.3α1E after local administration in the absence of Sema3A: induced the expression of xCav2

## O=c1onc2cnc3ccccc3n12 [ODQ, 1H-[1,2,4]oxadiazolo[4,3-a]quinoxalin-1-one]
[3]; agent as pretreatment / in the bath
  Rp-8-pCPT-cGMPS-induced Cav2.3 currents in the presence of the agent: not affected
[3]; gradient of Sema3A on xSCIN growth cones, agent added
  Sema3A-induced Cav2.3 currents in the presence of the agent: prevented
[1]; [10]
  MAP2-IR / dendrite formation after local administration: abolished
[1]; local administration, A-MO in one side of spinal cords (FIGS. 15L, 15M)
  appearance of dendrites in the presence of the xCav2.3: prevented the appearance of dendrites
[2]; [10]
  expression of xCav2.3α1E after local administration: abolished
[2]; [11]
  expression of xCav2.3α1E after local administration in the absence of Sema3A: significant reduction

## Nc1nc2c(nc(Sc3ccc(Cl)cc3)n2[C@@H]2O[C@@H]3CO[P@@](=O)(S)O[C@H]3[C@H]2O)c(=O)[nH]1 [Rp-8-pCPT-cGMPS]
[3]
  Cav2.3 currents induced by a gradient of the agent alone: induced Cav2.3 currents
  Sema3A-induced Cav2.3 currents in the presence of the agent: pre-empted
[1]; in vivo
  MAP2-IR / dendrite formation after local administration: drastically reduced
  appearance of dendrites in the presence of the xCav2.3: prevented the appearance of dendrites
[2]; in vivo
  expression of xCav2.3α1E after local administration: significant increase
  expression of xCav2.3α1E after local administration in the absence of Sema3A: induced the expression of xCav2

## C[C@@H]1C[C@@H]([C@H](O)CC2CC(=O)NC(=O)C2)C(=O)[C@@H](C)C1 [cycloheximide]
[3]
  Rp-8-pCPT-cGMPS-induced Cav2.3 currents in the presence of the agent: eliminated
[4]
  Sema3A-induced expression of Cav2.3 in vitro after pre-treatment: eliminated
[2]; in vivo
  expression of xCav2.3α1E after local administration: eliminated

## COCCOC(=O)C1=C(C)NC(C)=C(C(=O)OC(C)C)C1c1cccc([N+](=O)[O-])c1 (centres unmarked) [nimodipine]
[1]; in vivo
  MAP2-IR / dendrite formation after local administration: no significant effect

## Netrin-1: another secreted factor that effects axon initiation in C. elegans
[5]; [12]
  MAP2-IR: no significant effect
  tau-1 immunoreactivity (IR): no significant effect

## SNP-1: the soluble Npn-1 ectodomain peptide that sequesters Sema3A
[5]; agent bath-applied with Sema3A
  Sema3A-induced conversion of tau-1-positive axons to MAP2-positive dendrites in the presence of the agent: prevented

## SNX-482 (GVDKAGCRYMFGGCSVNDDCCPRLGCHSLFSYCAWDLTFSD)
[5]
  Sema3A-induced conversion of tau-1-positive axons to MAP2-positive dendrites in the presence of the agent: prevented
[3]
  Sema3A-induced Cav2.3 currents in the presence of the agent: abolished
[6]
  ratio of MAP2 to tau-1 in total protein extracted from spinal cords: significantly lower
[7]
  tau-1-IR after local administration into the spinal cord: significant increase
[1]; in vivo
  MAP2-positive dendrites after local administration, 45 μM: eliminated almost all dendrites
  MAP2-positive dendrites after local administration, lower doses: significant reductions

## xCav2.3α1E-A-MO: antisense morpholino oligonucleotide against xCav2.3α1E mRNA (SEQ ID NO: 7) (antisense CTATGTGATATGATTATTTATGACC; all phosphorodiamidate morpholino (PMO))
[7]
  tau-1-IR in the MO-injected side of the spinal cords: significant increase
[1]
  MAP2-IR in the MO-injected side of spinal cords: significantly reduced
[8]
  neurites of individual putative CINs in the MO-treated side: multiple axon-like neurites

## xSema3A-A-MO: antisense morpholino oligonucleotide against xSema3A mRNA (SEQ ID NO: 8) (antisense ATGCAATCCAGGTCAGAGAGCCCAT; all phosphorodiamidate morpholino (PMO))
[9]
  expression of xSema3A in the MO-injected side: reduced significantly
[1]
  MAP2-IR in the MO-injected side of spinal cords: significantly reduced
[2]; stage 34
  expression of xCav2.3α1E in the MO-injected side: reduced markedly

## ω-conotoxin GVIA
[5]
  Sema3A-induced conversion of tau-1-positive axons to MAP2-positive dendrites in the presence of the agent: neither L-types (nimodipine) nor N-types (ω-conotoxin GVIA) prevented the conversion
[7]
  tau-1-IR after local administration into the spinal cord: neither nimodipine (FIG. 6F and bottom panel, labeled f; FIG. 6G) nor w-conotoxin GVIA (FIG. 6G) had significant effect
[1]; in vivo
  MAP2-IR / dendrite formation after local administration: no significant effect
